Experimental data published in ChEMBL document CHEMBL1201862, “PubChem BioAssay data set” (2004).
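Test compounds were applied to cells in 96-well plates for 48 hours at 5 doses. At the GI50, growth is halved.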 Calls of active or inactive are those of the source. No stated cut-off is given here; in the data, active = GI50 up to about 1.1 µM and inactive = higher.

Assays:
Assay in all cases: inhibition of tumour cell growth, NCI panel, 48 h
[1] = test system: HCT-116
[2] = test system: HOP-92
[3] = test system: K562
[4] = test system: M14
[5] = test system: MCF7
[6] = test system: NCI-H23
[7] = test system: PC-3
[8] = test system: RPMI-8226
[9] = test system: SF-295
[10] = test system: SF-539
[11] = test system: SK-MEL-28
[12] = test system: SK-MEL-5
[13] = test system: SK-OV-3
[14] = test system: SR
[15] = test system: T47D
[16] = test system: UACC-257
[17] = test system: RXF 393
[18] = test system: UO-31
[19] = test system: A498

Row | Structure (SMILES) | GI50 [1] | GI50 [2] | GI50 [3] | GI50 [4] | GI50 [5] | GI50 [6] | GI50 [7] | GI50 [8] | GI50 [9] | GI50 [10] | GI50 [11] | GI50 [12] | GI50 [13] | GI50 [14] | GI50 [15] | GI50 [16] | GI50 [17] | GI50 [18] | GI50 [19]
1 | O=C(O)/C=C/c1ccc(Oc2ccccc2C(=O)O)o1 | > 10 µM (inactive) | > 10 µM (inactive) | > 10 µM (inactive) | > 10 µM (inactive) | > 10 µM (inactive) | > 10 µM (inactive) | > 10 µM (inactive) | > 10 µM (inactive) | > 10 µM (inactive) | > 10 µM (inactive) | > 10 µM (inactive) | > 10 µM (inactive) | > 10 µM (inactive) | > 10 µM (inactive) | > 10 µM (inactive) | > 10 µM (inactive) |  |  | 
2 | O=C(Nc1ccc(N=C=S)cc1Cl)c1cc(Br)cc(Br)c1O | 16.3 µM (inactive) | 14.1 µM (inactive) | 32.8 µM (inactive) | 33.7 µM (inactive) | 31.5 µM (inactive) | 26.7 µM (inactive) | 19 µM (inactive) |  | 31.1 µM (inactive) | 23.9 µM (inactive) | 30.4 µM (inactive) | 23.9 µM (inactive) | 42.9 µM (inactive) | 28.6 µM (inactive) | 39.7 µM (inactive) | 21.4 µM (inactive) | 43.9 µM (inactive) | 30.3 µM (inactive) | 
3 | C[n+]1c2ccccc2n2c3ccccc3c(NCc3ccco3)c(C#N)c21 | 0.957 µM (active) | 5.94 µM (inactive) | 1.49 µM (inactive) | 2.3 µM (inactive) | 0.575 µM (active) | 1.46 µM (inactive) | 2.23 µM (inactive) | 0.546 µM (active) | 2.67 µM (inactive) | 0.959 µM (active) | 1.99 µM (inactive) | 2.78 µM (inactive) | 3.85 µM (inactive) |  | 3.67 µM (inactive) | 3.48 µM (inactive) | 1.65 µM (inactive) | 1.22 µM (inactive) | 6.08 µM (inactive)
4 | CC(=O)/C(=C/NC(=S)c1cccnc1)C(=O)Nc1ccccc1C | 83 µM (inactive) | > 100 µM (inactive) | > 100 µM (inactive) | > 100 µM (inactive) | > 100 µM (inactive) | > 100 µM (inactive) | 68.9 µM (inactive) | > 100 µM (inactive) | > 100 µM (inactive) | 30.9 µM (inactive) | > 100 µM (inactive) | > 100 µM (inactive) | > 100 µM (inactive) |  | > 100 µM (inactive) | > 100 µM (inactive) | > 100 µM (inactive) | > 100 µM (inactive) | > 100 µM (inactive)
5 | CCNC(=S)NNC(=O)c1ccccc1Nc1ccccc1C(=O)NNC(=S)NCC | > 100 µM (inactive) | > 100 µM (inactive) | > 100 µM (inactive) | > 100 µM (inactive) | > 100 µM (inactive) | > 100 µM (inactive) | > 100 µM (inactive) | > 100 µM (inactive) | > 100 µM (inactive) |  | > 100 µM (inactive) | > 100 µM (inactive) | > 100 µM (inactive) | > 100 µM (inactive) | > 100 µM (inactive) |  |  | > 100 µM (inactive) | 
6 | CC(=O)OCC1OC(n2c(C)c(/N=N/c3ccc(Cl)cc3)c(C)c(C#N)c2=S)C(OC(C)=O)C(OC(C)=O)C1OC(C)=O (configuration not stated) | 48.1 µM (inactive) | 0.205 µM (active) | > 100 µM (inactive) | > 100 µM (inactive) | > 100 µM (inactive) | > 100 µM (inactive) | > 100 µM (inactive) | > 100 µM (inactive) | 25.1 µM (inactive) | 44.1 µM (inactive) | > 100 µM (inactive) | 64.3 µM (inactive) | 36.3 µM (inactive) | > 100 µM (inactive) | > 100 µM (inactive) | 62.8 µM (inactive) | 18.2 µM (inactive) | > 100 µM (inactive) | 
